Laboratory results published in paper PMC11211886 (Frontiers in Pharmacology, 2024).
Values after ≈ are worked out from the molar mass of the structure shown. Read-outs that look alike come from different tables or passages of the source.

How the values were obtained:
[1] = Whole blood-to-plasma partition, human blood; format: in vitro ADME
Protocol: The whole blood and plasma samples were incubated at 37°C for up to 1 h. Serial samples (150 µL) were collected at different time points (0, 10, and 60 min) and transferred into new tubes. The whole blood samples were then centrifuged at 1700 g for 15 min to harvest plasma.

[2] = Metabolic stability in dog liver microsomes; format: in vitro ADME; conditions: for CLint scaled at 1 µM / half-life at 1 µM: pH 7.4; for CLint scaled at 1 µM: read-out: Predicted CL int, iv vivo; for half-life at 1 µM: read-out: in vitro t1/2
Protocol: FMO was deactivated by heating liver microsomes at 45°C for 5 min. […] The natural logarithm of the percentage of the drug remaining was plotted against the incubation time, and the slope of the linear regression (-k) was converted to in vitro half-lives (t1/2) using the following equation: […] (1) metabolic clearance is the major mechanism of clearance; (2) liver is the major organ of clearance; and (3) oxidation is the major metabolic pathway. CLint,in vitro=k / Cmicrosomes , Scaled CLint,in vivo=CLint,in vitro×microsomes yield×liver weight, where Cmicrosomes means the experimental protein concentration (0.5 mg/mL) in the incubation system. […] Then, the scaled in vivo intrinsic clearance was used to predict the systemic clearance (equal to the hepatic clearance) using the well-stirred venous equilibration model ([Houston, 1994]).

CYP3A4 = assay: CYP induction in human hepatocytes, CYP3A4 enzyme activity; format: in vitro ADME
Protocol: (§1) […] […] […] Enzyme activity for each CYP isoform was reported as a fold change over vehicle control and the percent of positive control (detailed calculation in Supplementary 1.1). Hepatocytes were harvested with a lysis buffer from RNeasy 96 Kit (Qiagen Inc., Germantown, MD, USA) to isolate RNA, which was analyzed by real-time quantitative polymerase chain reaction (RT-PCR). […] Emax (the maximal observed induction) and EC50 (the concentration that supports half-maximal induction) were estimated by non-linear regression of fold increase in CYP mRNA expression versus concentration plots.
(§2) The fold of vehicle control and the percent of positive control were calculated with the formulas below:
(§3) Fold of vehicle control = CYPs activity of test compound (or positive control) treated sample / CYPs activity of vehicle control treated sample
(§4) % of positive control = [(fold change in treated sample)-1] / [(fold change in positive control)-1] × 100

CYP2C19 = assay: CYP induction in human hepatocytes, CYP2C19 enzyme activity; format: in vitro ADME
Protocol: as §1, §2, §3, §4
Based on the enzyme activity, a minimum of 2-fold increase compared to vehicle control for the positive control and ≥40% of the positive control for the test article was considered as the cutoff for a positive signal in in vitro induction assay.

CYP2B6 mRNA = assay: CYP induction in human hepatocytes, CYP2B6 mRNA (RT-PCR)
Protocol: as §1, §4
Based on the gene expression, a minimum of 4-fold increase of positive control compared to vehicle control, a minimum of 2-fold increase of the test article compared vehicle control and increased in a concentration-dependent manner was considered as the cutoff for a positive signal in in vitro induction assay.

[3] = Amdizalisib remaining/concentration after the last incubation in hepatocyte induction assays; conditions: for Amdizalisib concentration: CYP2C induction assay; for percentage of amdizalisib remaining: 5 h after last incubation
Protocol: as §1

[4] = Human PK projection by allometric scaling; conditions: allometric scaling with correction of MLP and fu
Source text: Translational prediction of human plasma total clearance (CL) and volume of distribution at steady state (Vss) was projected using the AS approach for different preclinical species (mice, rats, dogs, and monkeys). The mean value of unbound plasma fraction (fu) in animals was applied to transform pharmacokinetic parameters (Vss or CL) to the corresponding free drug clearance (CLu) and free drug volume of distribution (Vss,u). The CLu in preclinical species was scaled to CLu in humans according to the following equations with consideration of the maximum lifespan potential (MLP) as a correction factor according to the rule of exponents (RoEs) ([Mahmood and Balian, 1996]), and Vss,u in preclinical species was scaled to Vss,u in humans simply based on BW according to the following equations. Both CLu and Vss,u in humans were converted to CL and Vss using the mean value of fu in humans. CLu×MLP=a×BW^b, log (CLu×MLP)=log a+b log BW, Vss,u=a×BW^b, log (Vss,u)=log a+b log BW,
where BW represents the body weight of the standard species (0.02, 0.2, 10, 4, and 70 kg for mice, rats, dogs, cynomolgus monkeys, and humans, respectively), a represents allometric coefficients, and b is allometric exponents.

Solubility = format: physicochemical; conditions: water, pH 7.78
[5] = FMO-deactivated liver microsomes, female dog liver microsomes, FMO deactivation
[6] = FMO-deactivated liver microsomes, male dog liver microsomes, FMO deactivation
[7] = female dog liver microsomes, normal
[8] = male dog liver microsomes, normal

Structure (SMILES): C[C@H](Nc1ncnc(N)c1C#N)c1cc2ncc(Cl)n2nc1-c1ccccc1 [Amdizalisib]
- fuB ([1]; human blood, 0 min): 11.7%
- RB ([1]; human, 0 min, 1 µM): 0.615
- fup ([1]; human, 1 µM): 0.0720
- RB ([1]; human, 10 min, 1 μM): 0.680
- fuB ([1]; human, 10 min, 1 μM): 10.6%
- RB ([1]; human, 60 min, 1 μM): 0.797
- fuB ([1]; human, 60 min, 1 μM): 9.02%
- CLint scaled at 1 µM [2, 5]: 50.4 mL/min/kg
- half-life at 1 µM [2, 5]: 0.66 h
- CLint scaled at 1 µM [2, 6]: 19.9 mL/min/kg
- half-life at 1 µM [2, 6]: 1.67 h
- Predicted CL sys ([2]; female dog liver microsomes, FMO deactivation): 19.2 mL/min/kg
- Predicted CL sys [2, 7]: 18.8 mL/min/kg
- Predicted CL sys ([2]; male dog liver microsomes, FMO deactivation): 12.1 mL/min/kg
- Predicted CL sys [2, 8]: 12.4 mL/min/kg
- CLint scaled at 1 µM [2, 7]: 48.1 mL/min/kg
- half-life at 1 µM [2, 7]: 0.692 h
- CLint scaled at 1 µM [2, 8]: 20.7 mL/min/kg
- half-life at 1 µM [2, 8]: 1.6 h
- Enzyme activity Percent of PC (%) (CYP3A4; CYP3A4, donor seven, 1 µM): 4.50%
- Enzyme activity Percent of PC (%) (CYP3A4; CYP3A4, donor seven, 3 µM): 4.60%
- Enzyme activity Percent of PC (%) (CYP3A4; CYP3A4, donor seven, 10 µM): 19.8%
- Enzyme activity Percent of PC (%) (CYP3A4; CYP3A4, donor seven, 20 µM): 5.20%
- Enzyme activity Percent of PC (%) (CYP3A4; CYP3A4, donor seven, 30 µM): 4.60%
- Enzyme activity Percent of PC (%) (CYP3A4; CYP3A4, donor six, 1 µM): 0.50%
- Enzyme activity Percent of PC (%) (CYP3A4; CYP3A4, donor six, 3 µM): 3.60%
- Enzyme activity Percent of PC (%) (CYP3A4; CYP3A4, donor six, 10 µM): 19.8%
- Enzyme activity Percent of PC (%) (CYP3A4; CYP3A4, donor six, 20 µM): 28.9%
- Enzyme activity Percent of PC (%) (CYP3A4; CYP3A4, donor six, 30 µM): 17.7%
- Enzyme activity Percent of PC (%) (CYP3A4; CYP3A4, donor two, 1 µM): 0.10%
- Enzyme activity Percent of PC (%) (CYP3A4; CYP3A4, donor two, 3 µM): 0.40%
- Enzyme activity Percent of PC (%) (CYP3A4; CYP3A4, donor two, 10 µM): 4.40%
- Enzyme activity Percent of PC (%) (CYP3A4; CYP3A4, donor two, 20 µM): 1.30%
- Enzyme activity Percent of PC (%) (CYP3A4; CYP3A4, donor two, 30 µM): 1.40%
- induction of CYP3A4 enzyme activity (CYP3A4; up to 30.0 µM, all three donors): not considered an inducer
- Enzyme activity Percent of PC (%) (CYP2C19; CYP2C19, donor eight, 0.3 µM): 2.58%
- Enzyme activity Percent of PC (%) (CYP2C19; CYP2C19, donor eight, 3 µM): -3.72%
- Enzyme activity Percent of PC (%) (CYP2C19; CYP2C19, donor eight, 20 µM): -16.6%
- Enzyme activity Percent of PC (%) (CYP2C19; CYP2C19, donor four, 0.3 µM): -2.17%
- Enzyme activity Percent of PC (%) (CYP2C19; CYP2C19, donor four, 3 µM): -13.5%
- Enzyme activity Percent of PC (%) (CYP2C19; CYP2C19, donor four, 20 µM): -28.3%
- Enzyme activity Percent of PC (%) (CYP2C19; CYP2C19, donor one, 0.3 µM): 6.39%
- Enzyme activity Percent of PC (%) (CYP2C19; CYP2C19, donor one, 3 µM): 1.83%
- Enzyme activity Percent of PC (%) (CYP2C19; CYP2C19, donor one, 20 µM): -19.2%
- induction of CYP2C19 enzyme activity (CYP2C19; up to 20 µM, all three donors): no induction potential
- R3 value (CYP2B6 induction, basic kinetic model) (CYP2B6 mRNA): ≤ 0.8
- induction on CYP2B6 mRNA expression (CYP2B6 mRNA; 20 uM): >2-fold induction on CYP1A2, 2B6, 3A4, 2C9 mRNA expression at 20 uM
- Gene expression Percent of PC (%) (CYP2B6 mRNA; CYP2B6, donor seven, 1 µM): 9.50%
- Gene expression Percent of PC (%) (CYP2B6 mRNA; CYP2B6, donor seven, 3 µM): 1.70%
- Gene expression Percent of PC (%) (CYP2B6 mRNA; CYP2B6, donor seven, 10 µM): 60.8%
- Gene expression Percent of PC (%) (CYP2B6 mRNA; CYP2B6, donor seven, 20 µM): 22.4%
- Gene expression Percent of PC (%) (CYP2B6 mRNA; CYP2B6, donor seven, 30 µM): 43.7%
- Gene expression Percent of PC (%) (CYP2B6 mRNA; CYP2B6, donor six, 1 µM): 2.50%
- Gene expression Percent of PC (%) (CYP2B6 mRNA; CYP2B6, donor six, 3 µM): 5.50%
- Gene expression Percent of PC (%) (CYP2B6 mRNA; CYP2B6, donor six, 10 µM): 34.3%
- Gene expression Percent of PC (%) (CYP2B6 mRNA; CYP2B6, donor six, 20 µM): 36.8%
- Gene expression Percent of PC (%) (CYP2B6 mRNA; CYP2B6, donor six, 30 µM): 25.2%
- Gene expression Percent of PC (%) (CYP2B6 mRNA; CYP2B6, donor two, 1 µM): 5.40%
- Gene expression Percent of PC (%) (CYP2B6 mRNA; CYP2B6, donor two, 3 µM): 2.30%
- Gene expression Percent of PC (%) (CYP2B6 mRNA; CYP2B6, donor two, 10 µM): 29.6%
- Gene expression Percent of PC (%) (CYP2B6 mRNA; CYP2B6, donor two, 20 µM): 18.1%
- Gene expression Percent of PC (%) (CYP2B6 mRNA; CYP2B6, donor two, 30 µM): 39.0%
- Emax, CYP2B6 expression (CYP2B6 mRNA; donor seven): 5.42 fold
- Emax, CYP2B6 expression (CYP2B6 mRNA; donor six): 7.94 fold
- Emax, CYP2B6 expression (CYP2B6 mRNA; donor two): 3.39 fold
- Amdizalisib concentration ([3]; nominal 3 µM, donor eight, 1h): 3.57 ± 0.26 µM
- Amdizalisib concentration ([3]; nominal 3 µM, donor four, 1h): 3.38 ± 0.33 µM
- Amdizalisib concentration ([3]; nominal 20 µM, donor eight, 1h): 23.3 ± 0.27 µM
- Amdizalisib concentration ([3]; nominal 20 µM, donor eight, 4h): 21.2 ± 2.3 µM
- Amdizalisib concentration ([3]; nominal 20 µM, donor eight, 24h): 21.9 ± 0.27 µM
- percentage of amdizalisib remaining ([3]; donor seven, 30 µM): 105.3%
- percentage of amdizalisib remaining ([3]; donor two, 10 µM): 105.8%
- percentage of amdizalisib remaining ([3]; donor two, 30 µM): 104.3%
- predicted human CL [4]: 2.57 mL/min/kg
- solubility (Solubility): 25 µg/mL (≈ 64 µM)
